Results published in US6685932B1, “Coiled-coil dimer derived antagonists of 4-helix bundle cytokines, design and uses thereof” (Europaisches Laboratorium Molekularbiologie, priority 1997, dated 2004).
Read-outs that look alike come from different tables or passages of the source. Positions of bridges follow the written chain, without caps; N, C: chain ends. Chains are numbered I, II in the order given.

Assays:
[1] = target: T1, IL-4Rα (extracellular domain, IL4BP) (Homo sapiens, UniProt P24394, Q231C); assay: biosensor-based binding experiments (BIA2000 system) on immobilised IL-4 binding protein
T1 sequence (P24394 26-232 Q231C): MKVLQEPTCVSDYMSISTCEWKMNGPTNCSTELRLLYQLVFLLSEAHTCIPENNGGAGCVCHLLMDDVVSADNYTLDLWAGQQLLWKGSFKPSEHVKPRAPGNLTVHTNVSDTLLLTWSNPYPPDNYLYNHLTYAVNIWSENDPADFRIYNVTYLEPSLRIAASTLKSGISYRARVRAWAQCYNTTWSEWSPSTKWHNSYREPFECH
Text: All the peptides were synthesized by solid phase methods, aminated on the C-terminus and acetylated on the N-terminus. The activity of the peptides was investigated by biosensor-based binding experiments using the BIA2000 system (Pharmacia Biosensor), at room temperature. […] An extensive study of the role of disulfide bridges in the stability of coiled-coil structures and proteins in general is available in the literature (86-88).

[2] = temperature-induced denaturation followed by Circular Dichroism; assay type: physicochemical; details: for stability / midpoint transition temperature (Tm), in words: CD at 222 nm
Text: Upon fitting the experimental data, the midpoint transition temperature (Tm) can be obtained.

## RMKQLEDKVEELLSKNYRLENRVARLEKLVG [Model 1]
[1]; room temperature (25° C.), immobilised biotinylated IL4BP
  Kd: 105597

## Ac-RMKQLEKKVERLLKRNYRLEWEVIRLKKLVG-NH2 [MAR-IL-4]
[1]
  Kd: 26 µM
[2]
  stability / midpoint transition temperature (Tm), in words: cooperative temperature induced transition characteristic of a folded protein
[2]; low peptide concentrations used to measure binding
  temperature at which the peptide starts losing its structure: 25 °C

## I: Ac-RMKQLEKKVERCLKRLYRNEWEVIRLKKLVG-NH2 / II: Ac-RMKQLEKKVERCLKRLYRNEWEVIRLKKLVG-NH2 (disulfide I:12-II:12) [Model 12CNMAR-IL4]
[1]; relative to peptide bearing cysteine at position 12
  binding affinity relative to parent peptide: binding affinity is not affected
[2]
  stability / midpoint transition temperature (Tm), in words: significant drop in the stability

## I: Ac-RMKQLEKKVERCLKRNYRLEWEVIRLKKLVG-NH2 / II: Ac-RMKQLEKKVERCLKRNYRLEWEVIRLKKLVG-NH2 (disulfide I:12-II:12) [Model 12CMAR-IL4]
[1]; relative to MAR-IL4
  increase in the binding affinity to IL-4Rα: 5 fold
